Consider four compounds from patent US8865894B2, “Oxazolidin-2-one compounds and uses thereof” (Novartis AG, priority 2012, dated 2014).

Format in all cases: cell-based
Data set [1] deals with T1, human PI3Kalpha p110 catalytic subunit (Rat-1 pBABEpuro Myr-HA-hp110alpha) (Homo sapiens, UniProt P42336).
T1 construct: Myr (myristoylation signal) (N); HA (N); expressed in transfected cells; host or cells: Rat-1
Description: Cellular assay PI3Kalpha (p-Akt(S473) SureFire, Rat-1_PI3Kalpha cells). Particulars: 1 h compound treatment, read-out: Rat1-PI3Ka/ IC50. An excerpt: (§1) AlphaScreen (Amplified Luminescent Proximity Homogeneous Assay, ALPHA, Perkin Elmer) is a non-radioactive bead-based proximity assay technology to study biomolecular interactions in a homogenous microtiter plate format. The brand name SureFire denotes AlphaScreen assays that are adapted to quantify the phosphorylation of endogenous cellular proteins in cell lysates, by using matched antibody pairs, which consist of an anti-phospho-kinase and an anti-kinase antibody. The assay allows characterization of kinase signaling in cells as well as measurement of kinase inhibitor effects. The AlphaScreen technology provides several advantages over standard assay techniques such as ELISA, as it avoids time-consuming washing procedures and reduces plate handling. Furthermore, it is miniaturizable at least to a 384-well format and provides sensitivity down to the femtomolar range, dependent on the affinity of the antibodies included in the individual AlphaScreen SureFire assay kit. High sensitivity is reached by an intrinsic amplification mechanism, which involves production of singlet oxygen molecules. SureFire assay kits are commercially available for specific targets and include pairs of validated antibodies (PerkinElmer). This report describes common procedures applied for AlphaScreen SureFire assays and respective semi-automated steps for routine kinase inhibitor profiling in cell-based assays.
(§2) The Rat-1 cell lines stably overexpressing activated PI3K class I isoforms Rat-1 pBABEpuro Myr-HA-hp110 delta (Rat-1_PI3Kdelta) and Rat-1 pBABEpuro Myr-HA-hp110alpha (Rat-1_PI3Kalpha) and Rat-1 pBABEpuro Myr-HA-hp110 beta (Rat-1_PI3beta) were prepared as described (Maira S M, Stauffer F, Brueggen J, Furet P, Schnell C, Fritsch C, Brachmann S, Chène P, de Pover A, Schoemaker K, Fabbro D, Gabriel D, Simonen M, Murphy L, Finan P, Sellers W, García-Echeverría C (2008), Mol Cancer Ther. 7:1851-63 and Maira S M, Pecchi S, Brueggen J, Huh K, Schnell C, Fritsch C, Nagel T, Wiesmann M, Brachmann S, Dorsch M, Chène P, Schoemaker K, De Pover A, Menezes D, Fabbro D, Sellers W, García-Echeverría C, Voliva C F (2011), Mol. Cancer Ther., accepted). All cell lines were cultivated in complete growth medium (DMEM high glucose, 10% (v/v) fetal bovine serum, 1% (v/v) MEM NEAA, 10 mM HEPES, 2 mM L-glutamine, puromycin (10 μg/mL for Rat-1_PI3Kdelta and Rat-1_PI3Kalpha, 4 ug/mL for Rat-1_PI3beta), 1% (v/v) Pen/Strep) to 90% confluency at 37° C./5% CO2/90% humidity in a humidified CO2 incubator and were split twice a week.
(§3) The following materials were used for p-AKT(S473) detection in Rat-1 cell lysates: Dulbecco's modified Eagle's medium (DMEM) high glucose (Gibco Invitrogen, Basel, Switzerland, Cat. No. 41965), Heat Inactivated Fetal Bovine Serum, Qualified (HI FBS; Gibco Invitrogen, Basel, Switzerland, Lot. No. 16140), MEM non essential amino acids (NEAA; Gibco Invitrogen, Basel, Switzerland, Cat. No. 11140), HEPES (Gibco Invitrogen, Basel, Switzerland, Cat. No. 15630), Penicillin/Streptomycin (Pen/Strep, 100×; Gibco Invitrogen, Basel, Switzerland, Cat. No. 15140-122), L-Glutamine (Gibco Invitrogen, Basel, Switzerland, Cat. No. 25030), Puromycin (Sigma Aldrich, Buchs, Switzerland, Cat. No. P9620), DMSO (MERCK, Dietikon, Switzerland, Cat. No. 8.02912.2500), H2O, MilliQ-H2O unless otherwise stated (MILLIPORE QGARDOOR1, Millipore, Zug, Switzerland), Bovine serum albumine (BSA; Sigma Aldrich, Buchs, Switzerland Cat. No. A8412), SureFire p-Akt 1/2 (Ser473) Assay Kit (PerkinElmer, Schwerzenbach, Switzerland, Cat. No. TGRAS50K).
(§4) The p-Akt(S473) SureFire assay measures the phosphorylation of endogenous cellular Akt 1/2 at Ser473 in cell lysates. Using Rat-1 cells stably expressing myr-HA-tagged versions of the human PI3Kdelta, PI3Kalpha, or PI3Kbeta p110 catalytic subunit isoforms, the assay was developed as a two-plate protocol in a 384-well format.

For data set [2], the target named is T2, human PI3Kbeta p110 catalytic subunit (Rat-1 pBABEpuro Myr-HA-hp110 beta) (Homo sapiens, UniProt P42338).
T2 construct: Myr (myristoylation signal) (N); HA (N); expressed in transfected cells; host or cells: Rat-1
T2 sequence (P42338 whole entry): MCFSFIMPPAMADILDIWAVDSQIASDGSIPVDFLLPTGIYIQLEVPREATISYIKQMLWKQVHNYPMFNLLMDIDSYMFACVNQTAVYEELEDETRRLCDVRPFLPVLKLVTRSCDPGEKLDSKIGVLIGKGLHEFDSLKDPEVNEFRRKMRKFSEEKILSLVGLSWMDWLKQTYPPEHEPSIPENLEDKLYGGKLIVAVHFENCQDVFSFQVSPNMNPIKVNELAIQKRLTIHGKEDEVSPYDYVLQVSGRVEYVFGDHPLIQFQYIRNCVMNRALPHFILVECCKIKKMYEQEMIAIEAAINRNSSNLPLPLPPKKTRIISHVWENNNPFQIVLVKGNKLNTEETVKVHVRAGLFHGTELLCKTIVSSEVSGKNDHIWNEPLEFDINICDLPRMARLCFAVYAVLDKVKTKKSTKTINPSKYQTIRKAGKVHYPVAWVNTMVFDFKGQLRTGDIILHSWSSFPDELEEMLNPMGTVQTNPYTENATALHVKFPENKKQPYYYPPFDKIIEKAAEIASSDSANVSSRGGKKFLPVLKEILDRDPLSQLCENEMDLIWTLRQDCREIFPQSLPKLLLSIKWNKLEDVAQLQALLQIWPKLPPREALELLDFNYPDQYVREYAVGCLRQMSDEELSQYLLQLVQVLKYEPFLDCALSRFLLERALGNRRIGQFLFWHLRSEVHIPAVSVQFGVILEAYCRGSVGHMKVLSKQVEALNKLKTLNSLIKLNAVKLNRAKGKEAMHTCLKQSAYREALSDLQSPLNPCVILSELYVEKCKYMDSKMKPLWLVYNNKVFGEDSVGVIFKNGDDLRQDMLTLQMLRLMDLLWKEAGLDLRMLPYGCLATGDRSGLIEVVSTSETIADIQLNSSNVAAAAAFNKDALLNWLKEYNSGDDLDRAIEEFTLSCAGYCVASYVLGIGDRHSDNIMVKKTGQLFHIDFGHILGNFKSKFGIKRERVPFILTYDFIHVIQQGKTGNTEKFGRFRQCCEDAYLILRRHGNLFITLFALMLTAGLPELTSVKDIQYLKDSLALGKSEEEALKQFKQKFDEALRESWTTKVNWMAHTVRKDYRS
T2 sequence (Q63787 whole entry partner): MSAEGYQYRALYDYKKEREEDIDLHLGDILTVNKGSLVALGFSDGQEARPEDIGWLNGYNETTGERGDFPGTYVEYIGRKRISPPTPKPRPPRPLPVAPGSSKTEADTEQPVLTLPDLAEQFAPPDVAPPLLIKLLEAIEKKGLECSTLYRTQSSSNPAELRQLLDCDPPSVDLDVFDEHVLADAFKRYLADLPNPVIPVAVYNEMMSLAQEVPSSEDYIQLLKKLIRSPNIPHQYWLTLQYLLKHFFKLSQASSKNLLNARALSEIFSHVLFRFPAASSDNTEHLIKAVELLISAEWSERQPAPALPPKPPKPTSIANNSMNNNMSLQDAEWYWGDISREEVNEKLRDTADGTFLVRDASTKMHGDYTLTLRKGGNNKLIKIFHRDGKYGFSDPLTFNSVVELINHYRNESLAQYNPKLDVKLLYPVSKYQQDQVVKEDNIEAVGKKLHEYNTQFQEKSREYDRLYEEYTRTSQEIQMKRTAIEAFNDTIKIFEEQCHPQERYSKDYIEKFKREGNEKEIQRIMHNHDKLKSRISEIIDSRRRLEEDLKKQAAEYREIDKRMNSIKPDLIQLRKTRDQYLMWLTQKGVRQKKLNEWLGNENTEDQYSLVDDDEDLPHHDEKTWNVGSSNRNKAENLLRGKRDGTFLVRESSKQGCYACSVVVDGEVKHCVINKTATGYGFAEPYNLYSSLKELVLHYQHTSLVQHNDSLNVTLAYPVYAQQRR
Description: Cellular assay PI3Kbeta (p-Akt(S473) SureFire, Rat-1_PI3beta cells). Particulars: p-Akt(S473), 1 h compound treatment; read-out: Rat1-PI3Kb/ IC50.
Description: as §1, §2, §3, §4

The target of data set [3] is T3, human PI3Kdelta p110 catalytic subunit (Rat-1 pBABEpuro Myr-HA-hp110 delta) (Homo sapiens, UniProt O00329).
T3 construct: Myr (myristoylation signal) (N); HA (N); expressed in transfected cells; host or cells: Rat-1
T3 sequence (O00329 whole entry): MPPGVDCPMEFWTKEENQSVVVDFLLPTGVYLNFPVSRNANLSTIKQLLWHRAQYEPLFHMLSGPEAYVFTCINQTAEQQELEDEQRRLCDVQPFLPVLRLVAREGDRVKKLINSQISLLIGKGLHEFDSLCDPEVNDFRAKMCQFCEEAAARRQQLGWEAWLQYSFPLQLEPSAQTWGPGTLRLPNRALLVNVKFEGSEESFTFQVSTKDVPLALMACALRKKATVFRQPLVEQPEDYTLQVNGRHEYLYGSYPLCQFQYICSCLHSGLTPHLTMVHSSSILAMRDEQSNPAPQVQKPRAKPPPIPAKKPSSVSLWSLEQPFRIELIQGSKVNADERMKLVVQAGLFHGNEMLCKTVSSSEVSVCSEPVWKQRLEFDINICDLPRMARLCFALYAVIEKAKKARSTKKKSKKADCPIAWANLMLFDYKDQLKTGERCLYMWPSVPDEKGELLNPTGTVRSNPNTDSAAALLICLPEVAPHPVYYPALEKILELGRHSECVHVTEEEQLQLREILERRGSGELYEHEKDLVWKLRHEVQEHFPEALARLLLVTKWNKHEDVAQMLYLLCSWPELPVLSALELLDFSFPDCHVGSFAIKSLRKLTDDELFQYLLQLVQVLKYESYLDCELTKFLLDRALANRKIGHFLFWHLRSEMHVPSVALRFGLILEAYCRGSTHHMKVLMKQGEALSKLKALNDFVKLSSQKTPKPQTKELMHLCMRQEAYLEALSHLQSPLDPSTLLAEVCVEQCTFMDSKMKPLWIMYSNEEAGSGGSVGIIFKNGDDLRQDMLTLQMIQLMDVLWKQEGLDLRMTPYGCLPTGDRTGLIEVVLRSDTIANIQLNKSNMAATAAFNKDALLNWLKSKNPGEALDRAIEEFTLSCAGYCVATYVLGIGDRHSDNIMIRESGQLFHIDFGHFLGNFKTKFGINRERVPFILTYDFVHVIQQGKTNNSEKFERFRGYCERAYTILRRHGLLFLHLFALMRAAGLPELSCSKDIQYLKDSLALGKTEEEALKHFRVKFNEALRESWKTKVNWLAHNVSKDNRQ
T3 sequence (Q63787 whole entry partner): as the sequence (Q63787 whole entry partner) above
Briefly: Cellular assay PI3Kdelta (p-Akt(S473) SureFire, Rat-1_PI3Kdelta cells). As to conditions: 1 h compound treatment, read-out: Rat1-PI3Kd/ IC50.
Description: as §1, §2, §3, §4

Data set [4] has as its target T4, mTOR (Mus musculus, UniProt Q9JLN9).
T4 construct: endogenous in cells; host or cells: TSC1-/- MEF (mouse embryo fibroblasts)
Briefly: Cellular assay mTOR (phospho-T389 S6K1 SureFire in TSC1-/- MEF cells). As to conditions: TSC1-/- MEF cells; read-out: mTOR S6K(T389)_TSC1ko/ IC50. An excerpt:
A cell based assay (384-well format) was developed for determination of compound effects on cellular mTOR kinase activity in MEF (mouse embryo fibroblasts) cells derived from mice lacking TSC1 (Tuberosclerosis Complex1) a potent suppressor of mTOR kinase activity. Due to lack of TSC1 the mTOR kinase is constitutively activated resulting in permanent phosphorylation of Thr 389 of S6 kinase 1 (S6K1) which is one of the downstream targets of mTOR.
Using a SureFire Kit that enables to determine the phosphorylation of Thr389 on the S6K1 an assay was developed, validated and implemented in the Alpha-Screen format that allows the quantitative determination of phospho-T389 of S6K1 in cell lysates. […] These were in agreement with those values obtained with the biochemical mTOR ATP-binding assay enabling a quantitative comparison of potency of mTOR inhibitors.
TSC1−/− MEFs cells (Kwiatkowski, D. J., Zhang, H., Bandura, J. L., Heiberger, K. M., Glogauer, M., el-Hashemite, N., and Onda, H. (2002) Hum. Mol. Genet. 11, 525-534) were cultured in DMEM high glucose medium supplemented with 10% FBS (Invitrogen), 2 mM Glutamine and 1% (w/v) Penicillin/Streptomycin at 37° C., 5% CO2.
The SureFire kit for determination of P70S6kinase phosphorylation was purchased from Perkin Elmer (p70S6K p-T389, #TGR70S50K) and the assay was performed according to the instructions of the supplier and according to the generic method for SureFire assays. Shortly, 5 μL cell lysate per well were transferred to 384-well white proxy-plates (for luminescent readout) and mixed with […] and […] (final volume: 12 μL). After 3 h incubation in the dark at RT luminescence was read with the Envision Reader (Perkin Elmer). Untreated cells were used as control (high control) and cells treated with 3 μM BEZ235 were used as low control. The assay window between the signals obtained for the high and the low controls were defined as 100% and compound effects were expressed as percent inhibition. IC50 values were calculated from the dose response curves by graphical extrapolation.

Data set [5] deals with A2058 cells. Briefly: Cell cycle G2/M arrest Cytospin assay to detect tubulin binding (off-target). Also on record: key: 0=no condensed DNA observed (indicating no off target activity); 1=(indicating weak off target activity); 2=(indicating medium off target activity); 3=large amount of condensed DNA observed (indicating strong off-target activity). As to conditions: 5 μM test item, 24 hours. Here is the method: The off-target effect (evidence of tubulin binding) was measured as follows.
Cell cycle G2/M arrest Cytospin assay to detect tubulin binding (off-target) binding activities of MAPP derivatives: 5×10^5 cells A2058 cells were plated in 6-well cluster, with 2 mL of DMEM (high Glucose containing 1% sodium pyruvate, 1% glutamin and 10% FCS). 18 hours later, the test items were added at a concentration of 5 μM (spiking 1 μL of a 10 mM solution of the test item). 24 hours later, the cells were trypsinized and transferred into a 15 mL conical tube. Cells are then pelleted by centrifugation, and resuspended with PBS/0 (containing 10% FCS). Cells are counted with a CASY counter, and each samples equilibrated to 1×10^6 cells/mL. […] The staining was visually assessed for the presence of condensed DNA and given a score where 0=no condensed DNA observed (indicating no off target activity), 1=(indicating weak off target activity), 2=(indicating medium off target activity), 3=large amount of condensed DNA observed (indicating strong off-target activity).

T1 sequence (P42336 whole entry): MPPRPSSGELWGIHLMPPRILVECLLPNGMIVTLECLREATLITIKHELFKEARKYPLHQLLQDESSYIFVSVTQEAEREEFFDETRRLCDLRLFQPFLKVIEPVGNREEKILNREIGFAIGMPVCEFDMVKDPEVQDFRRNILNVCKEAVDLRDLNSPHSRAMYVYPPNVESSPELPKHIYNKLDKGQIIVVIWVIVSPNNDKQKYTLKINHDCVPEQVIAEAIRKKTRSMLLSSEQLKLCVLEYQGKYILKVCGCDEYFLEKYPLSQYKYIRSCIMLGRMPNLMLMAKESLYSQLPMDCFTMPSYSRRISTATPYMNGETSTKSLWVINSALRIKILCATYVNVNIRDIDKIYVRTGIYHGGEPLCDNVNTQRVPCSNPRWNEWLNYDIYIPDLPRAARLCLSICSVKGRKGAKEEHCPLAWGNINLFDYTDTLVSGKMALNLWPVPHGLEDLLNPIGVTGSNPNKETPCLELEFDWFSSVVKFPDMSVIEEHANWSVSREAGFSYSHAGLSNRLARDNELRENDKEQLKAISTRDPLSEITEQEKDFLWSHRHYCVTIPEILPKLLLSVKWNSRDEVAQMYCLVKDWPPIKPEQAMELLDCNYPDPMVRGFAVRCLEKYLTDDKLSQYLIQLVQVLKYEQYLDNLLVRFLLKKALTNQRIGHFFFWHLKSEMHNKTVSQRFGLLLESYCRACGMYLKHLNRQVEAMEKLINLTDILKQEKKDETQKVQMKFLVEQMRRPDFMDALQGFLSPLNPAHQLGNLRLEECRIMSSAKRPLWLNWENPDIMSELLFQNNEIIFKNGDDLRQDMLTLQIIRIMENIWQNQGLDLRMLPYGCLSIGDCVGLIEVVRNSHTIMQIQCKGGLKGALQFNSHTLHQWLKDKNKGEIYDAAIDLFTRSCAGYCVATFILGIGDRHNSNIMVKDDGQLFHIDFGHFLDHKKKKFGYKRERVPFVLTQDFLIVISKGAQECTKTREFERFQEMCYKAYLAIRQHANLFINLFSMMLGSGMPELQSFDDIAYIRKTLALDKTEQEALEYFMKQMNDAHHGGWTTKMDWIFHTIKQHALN
T1 sequence (Q63787 whole entry partner): as the sequence (Q63787 whole entry partner) above

For `CC1(CO)COC(=O)N1c1cc(-c2cnc(N)nc2C(F)(F)F)nc(N2CCOCC2)n1` (single isomer, unassigned) [Example 3A, 3-(2′-amino-2-morpholino-4′-(trifluoromethyl)-4,5′-bipyrimidin-6-yl)-4-(hydroxymethyl)-4-methyloxazolidin-2-one], the IC50 is 176 nM in data set [1], 93 nM in data set [2], 59 nM in data set [3] and 1570 nM in data set [4]. Besides, in data set [5], the “Score (condensed DNA, G2/M arrest; off-target tubulin binding)” value (“Score” for short) is 0.

On to `CC1(CO)COC(=O)N1c1cc(-c2cnc(N)nc2C(F)(F)F)nc(N2CCOCC2)n1` (single isomer, unassigned) [Example 3B, 3-(2′-amino-2-morpholino-4′-(trifluoromethyl)-4,5′-bipyrimidin-6-yl)-4-(hydroxymethyl)-4-methyloxazolidin-2-one], for which the IC50 in data set [1] came out at 215 nM; in data set [2] it was 331 nM; in data set [3], 172 nM; in data set [4], 1110 nM. In addition, the “Score” value in data set [5] is on record as 0.

As to `Nc1ncc(-c2cc(N3C(=O)OC[C@@H]3CO)nc(N3CCOCC3)n2)c(C(F)(F)F)n1` [Example 7, (S)-3-(2′-Amino-2-morpholin-4-yl-4′-trifluoromethyl-[4,5′]bipyrimidinyl-6-yl)-4-hydroxymethyl-oxazolidin-2-one], the IC50 in data set [1] was determined as 120 nM; in data set [2], 132 nM; in data set [3], 70 nM; in data set [4] it was 1230 nM.

Take `Nc1cc(C(F)(F)F)c(-c2cc(N3CCOCC3)nc(N3CCOCC3)n2)cn1` [WO2007/084786 Example 10, reference compound]: the IC50 in data set [4] turned out to be 602 nM. The “Score” value in data set [5] is reported as 3.
